Where two headings read alike, the source gives them in different places.
Assays:
[1] = tested on: Key Broadleaf Weed and Crop Species; assay: Post-emergent Test II herbicidal activity (Table 5); assay type: in vivo; details: post-emergence, 336 h, post-emergent, 14 days after application; for pest or weed control at 66 g/ha: 66 g ai/ha; for pest or weed control at 132 g/ha: 132 g ai/ha
Procedure, shortened: (§1)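 Visual injury ratings (0 = no injury, 100 = complete kill) were taken 14 d after treatment, relative to untreated plants. Seedlings at the first–second true leaf stage received overhead spray at 187 L/ha; the highest rate was serially diluted to ½×, ¼×, ⅛× and 1/16×.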

[2] = tested on: Key Grass and Sedge Weeds as well as Grass Crops; assay: Post-emergent Test II herbicidal activity (Table 6); assay type: in vivo; details: post-emergence, 336 h; for pest or weed control at 66 g/ha: application rate 66 g ai/ha; for pest or weed control at 132 g/ha: application rate 132 g ai/ha
Procedure, shortened: as §1

[3] = ABUTH: velvetleaf (Abutilon theophrasti), read-out: Visual Growth Reduction (%) 14 Days After Application ABUTH
[4] = AMARE: redroot pigweed (Amaranthus retroflexus), read-out: Visual Growth Reduction (%) 14 Days After Application AMARE
[5] = BRSNN: oilseed-rape, canola (Brassica napus), read-out: Visual Growth Reduction (%) 14 Days After Application BRSNN
[6] = CHEAL: lambsquarters (Chenopodium album), read-out: Visual Growth Reduction (%) 14 Days After Application CHEAL
[7] = EPHHL: wild poinsettia (Euphorbia heterophylla), read-out: Visual Growth Reduction (%) 14 Days After Application EPHHL
[8] = HELAN: sunflower (Helianthus annuus), read-out: Visual Growth Reduction (%) 14 Days After Application HELAN
[9] = VIOTR: wild pansy (Viola tricolor), read-out: Visual Growth Reduction (%) 14 Days After Application VIOTR
[10] = Triticum aestivum, TRZSS (wheat), read-out: Visual Growth Reduction (%) 14 Days After Application, TRZSS
[11] = CYPES: yellow nutsedge (Cyperus esculentus), read-out: Visual Growth Reduction (%) 14 Days After Application, CYPES
[12] = DIGSA: crabgrass (Digitaria sanguinalis), read-out: Visual Growth Reduction (%) 14 Days After Application, DIGSA
[13] = ECHCG: barnyardgrass (Echinochloa crus-galli), read-out: Visual Growth Reduction (%) 14 Days After Application, ECHCG
[14] = ORYSA: rice (Oryza sativa), read-out: Visual Growth Reduction (%) 14 Days After Application, ORYSA
[15] = SETFA: giant foxtail (Setaria faberi), read-out: Visual Growth Reduction (%) 14 Days After Application, SETFA
[16] = SORVU: grain sorghum (Sorghum vulgare), read-out: Visual Growth Reduction (%) 14 Days After Application, SORVU
[17] = ZEAMX: maize, corn (Zea mays), read-out: Visual Growth Reduction (%) 14 Days After Application, ZEAMX

Compound: C#Cc1ccc(-c2nc(C(=O)OC)c(Cl)c(N)c2C)cc1 [Compound 40, methyl 4-amino-3-chloro-6-(4-ethynylphenyl)-5-methylpicolinate]
- pest or weed control at 66 g/ha [1, 3]: 75 to 84%
- pest or weed control at 132 g/ha [1, 3]: 95 to 100%
- pest or weed control at 66 g/ha [1, 4]: 0 to 29%
- pest or weed control at 132 g/ha [1, 4]: 45 to 59%
- pest or weed control at 66 g/ha [1, 5]: 45 to 59%
- pest or weed control at 132 g/ha [1, 5]: 45 to 59%
- pest or weed control at 66 g/ha [1, 6]: 45 to 59%
- pest or weed control at 132 g/ha [1, 6]: 60 to 74%
- pest or weed control at 66 g/ha [1, 7]: 0 to 29%
- pest or weed control at 132 g/ha [1, 7]: 0 to 29%
- pest or weed control at 66 g/ha [1, 8]: 85 to 94%
- pest or weed control at 132 g/ha [1, 8]: 95 to 100%
- pest or weed control at 66 g/ha [1, 9]: 0 to 29%
- pest or weed control at 132 g/ha [1, 9]: 0 to 29%
- pest or weed control at 66 g/ha [2, 10]: 0 to 29%
- pest or weed control at 132 g/ha [2, 10]: 0 to 29%
- pest or weed control at 66 g/ha [2, 11]: 0 to 29%
- pest or weed control at 132 g/ha [2, 11]: 0 to 29%
- pest or weed control at 66 g/ha [2, 12]: 0 to 29%
- pest or weed control at 132 g/ha [2, 12]: 0 to 29%
- pest or weed control at 66 g/ha [2, 13]: 0 to 29%
- pest or weed control at 132 g/ha [2, 13]: 0 to 29%
- pest or weed control at 66 g/ha [2, 14]: 0 to 29%
- pest or weed control at 132 g/ha [2, 14]: 0 to 29%
- pest or weed control at 66 g/ha [2, 15]: 0 to 29%
- pest or weed control at 132 g/ha [2, 15]: 0 to 29%
- pest or weed control at 66 g/ha [2, 16]: 0 to 29%
- pest or weed control at 132 g/ha [2, 16]: 0 to 29%
- pest or weed control at 66 g/ha [2, 17]: 0 to 29%
- pest or weed control at 132 g/ha [2, 17]: 0 to 29%

— patent publication US9113629B2, “4-amino-6-(4-substituted-phenyl)-picolinates and 6-amino-2-(4-substituted-phenyl)-pyrimidine-4-carboxylates and their use as herbicides” (DOW AGROSCIENCES LLC, priority 2013, dated 2015)
